One series concerns E coli. Put plainly: Light-activated killing of bacteria (Example III-1). The format is cell-based. An excerpt:
No killing of bacteria in the dark has yet been observed.

Series [1] deals with E. coli. Kind of series: Killing of E. coli suspended in solution under irradiation or dark incubation (Part IV). Type of series: cell-based. As to conditions: for killing of E. coli / killing of E. coli at longer times: 1-10 μg/mL; for killing of E. coli: five minutes of irradiation; for killing of E. coli at longer times: longer than five minutes; for activity against E. coli in suspension in the dark: dark incubation. The text has this:
(§1) In the current study we have observed Compound E, Compound D, and Formula X in aqueous media with suspensions of E. coli and SARS-CoV-2 for Compound E and with suspensions of E. coli for Compound D and Formula X. We have also studied these oligomers as supported coatings on various supporting materials including wipe scaffolds, commercial Kimwipes, and proprietary materials from Diamond Wipes and HYDAC.

The test system of series [2] is SARS-CoV-2. Kind of series: Compound E in solution: inactivation of SARS-CoV-2 under cool white light, plaque assay on Vero E6 cells. Type of series: cell-based.
Series [3] relates to SARS-CoV-2. Kind of series: Compound E-coated glass fiber filter: inactivation of SARS-CoV-2 under cool white light, plaque assay on Vero E6 cells. Type of series: cell-based. As to conditions: for inactivation of the virus: coated on glass fiber, cool white.
Another series deals with mammal models. As to conditions: in vivo.
For series [4], the system named is E. coli. Put plainly: Killing of E. coli by compound coated on wet wipe surface or filter. Type of series: cell-based.
Text: Compound E was applied to a wet wipe surface and also to the surface of a filter for filtration of air or water.
as §1

The subject of the next series is bacteria. Put plainly: Antibacterial activity of oligomer IX under visible light and in the dark. The format is cell-based.
Series [5] relates to SARS-CoV-2. The format is cell-based. As to conditions: cool white; 30 minutes irradiation (earliest point).

Entries after “also recorded” stand apart in the source; their conditions may differ.

On to `Cn1cc[n+](CCCOc2ccc(C#Cc3ccc(C#Cc4ccc(OCCC[n+]5ccn(C)c5)cc4)cc3)cc2)c1` [Compound D], for which, in the series with E coli, the relative reactivity entry is “more reactive than Compound E”, the “anti-bacterial activity using LuzChem cool white light” value is on record as “excellent anti-bacterial activity”, the “killing of bacteria in the dark” value is recorded as “No killing” and the “light-activated killing of bacteria” value is recorded as “excellent light-activated killing”. Further, in the series with E. coli [1] (near UV), the “killing of E. coli” value is listed as ~99% and the “killing of E. coli at longer times” value is listed as “complete killing”. Besides, in the series on E. coli [1], the “activity against E. coli in suspension in the dark” value is on record as “neither compound showed any killing; also recorded: not under visible light or dark conditions” and the “activity against E. coli in suspension under near-UV” value (“activity … under near-UV” below) was “had activity”. Moreover, in the series on E. coli [1] (visible light), the “activity against E. coli in suspension under visible light” value is listed as “not under visible light or dark conditions”.

As to `Cn1cc[n+](CCCOc2ccc(C#Cc3ccc(C#Cc4ccc(OCCC[n+]5ccn(C)c5)cc4)s3)cc2)c1` [Compound E], the “activity against SARS-Cov-2 in suspension in the dark” value in the series with SARS-CoV-2 [2] (dark conditions) was “not in dark conditions”. The “inactivation of the virus” value with SARS-CoV-2 [2] (solution (10 μg/mL), cool white, 5 minutes of irradiation) was > 95%. In the series on SARS-CoV-2 [2] (solution, cool white, 10 minutes or longer), the “inactivation at longer irradiation” value is reported as “complete deactivation inactivation”. In the series with SARS-CoV-2 [2] (visible light and near-UV), the “activity against SARS-Cov-2 in suspension” value is “had activity”. In addition, in the series on E coli, the “anti-bacterial activity using LuzChem cool white light” value is on record as “excellent anti-bacterial activity”, the “killing of bacteria in the dark” value is on record as “No killing” and the “light-activated killing of bacteria” value is recorded as “excellent light-activated killing”. For the same compound, in the series on E. coli [1] (visible light), the “killing of E. coli” value is ~99%, the “killing of E. coli at longer times” value was “complete killing” and the “activity against E. coli in suspension under visible light” value is reported as “had activity”. Moreover, in the series on E. coli [1], the “activity against E. coli in suspension in the dark” value is “neither compound showed any killing; also recorded: not in dark conditions” and the “activity … under near-UV” value was “had activity”. Besides, in the series on SARS-CoV-2 [3] (10 minutes irradiation), the “inactivation of the virus” value was “about 90%”. For the same compound, the “inactivation of the virus” value in the series with SARS-CoV-2 [3] (30 minutes) is 3 log. Besides, the “activity against SARS-Cov-2 on a filter” value with SARS-CoV-2 [3] (visible light and near-UV) is listed as “had activity”. Also, the “toxicity against mammal models” value with mammal models was “no toxicity”. In addition, the “light-activated killing of E. coli on coated surface” value with E. coli [4] (applied to wet wipe surface and filter surface) is on record as “strong light-activated killing”. Also, the “activity against E. coli on a filter in the dark” value in the series with E. coli [4] (dark conditions) is recorded as “not in dark conditions”. Moreover, the “activity when coated surface immersed in suspension of E. coli” value in the series with E. coli [4] (surface immersed in E. coli suspension) was “activity was retained”. Also, the “activity against E. coli on a filter” value in the series on E. coli [4] (visible light and near-UV) is recorded as “had activity”.

`C[N+](C)(C)CCCOc1ccc(C#Cc2ccc(C#Cc3ccc(OCCC[N+](C)(C)C)cc3)cc2)cc1` [Formula IX]: the “activity against bacteria in the dark” value in the series on bacteria (dark) is given as “active against bacteria in the dark”. Further, the “activity under visible light irradiation” value with bacteria (visible light) was “not active under visible light irradiation”.

Regarding `C[N+](C)(C)CCCOc1ccc(C#Cc2ccc(C#Cc3ccc(OCCC[N+](C)(C)C)cc3)s2)cc1` [Formula X], in the series on E. coli [1], the “activity against E. coli in suspension in the dark” value is listed as “considerable dark reactivity; also recorded: had activity”; the “activity … under near-UV” value is “activity under visible light and near-UV; also recorded: had activity”. The “activity against E. coli in suspension under visible light” value in the series on E. coli [1] (visible light) is “activity under visible light and near-UV; also recorded: had activity”. The virus present result in the series with SARS-CoV-2 [5] is “no virus present”.

For the origin of these results see US20220040349A1, “ANTIVIRAL METHODS AND COMPOSITIONS” (priority 2020, published 2022).
